Reference: patent US7189708B2, “Topical composition for skin” (Kao Corporation, priority 1999, dated 2007)
Peptide text beside a SMILES is read from it.

Experiments:
hairless mouse (HR/ICR) = assay: Suppression of wrinkle formation in hairless mouse (UV-B exposure, topical application); conditions: 100 μL on back after daily UV-B, 20 weeks, visual rating 0 (no wrinkle) to 4 (deep wrinkles), control 3.06 ± 0.13
Description: Immediately after the exposure, an 80% ethanol solution (100 μL) containing a 0.1% test compound was applied to the back. The above procedure was carried out daily for 20 weeks. […] In the control group, only 80% ethanol was applied to the back of each mouse during the test. After the test, wrinkle formation was visually observed, and the degree of wrinkle formation was evaluated against the following ratings (wrinkle index).
1: A few shallow wrinkles were formed.
2: A slight amount of wrinkles was formed.
3: Some wrinkles were formed.
4: Deep wrinkles were formed.

C3H mice = assay: Hair growth suppression in mouse (shaved back, topical application); format: in vivo; conditions: 100 μL twice a day on shaved back, area of hair regrowth after three weeks relative to control; for response vs control in vivo at 0.1 %: Mus musculus, topical, 504 h, 0.1% in 80% ethanol, read-out: Hair-growth suppression ratio; for Hair-growth suppression ratio: 1% in 80% ethanol
Description: Hair Growth Suppression in Mouse
The hair on a portion of the backs (size: 2 cm×4 cm) of groups of six-week-old C3H mice, each group consisting of five mice, was carefully shaved so as not to injure the skin using an electric clipper and electric shaver. To the thus-shaved portion, a sample was applied in an amount of 100 μL twice a day for four weeks. Test compounds were dissolved in a solvent (80% ethanol) to attain the concentrations shown in Table 3, to thereby prepare samples. In the control group, only the solvent was applied to the shaved portion. After three weeks, in order to observe hair regrowth, the shaved portion was photographed at a certain magnification, and the ratio of the area of hair regrowth (i.e., the ratio of the area of hair regrowth to that of the shaved area) was compared with that of the control group using an image analyzer. The hair growth suppression ratio (%) was represented by a relative value when the ratio of the area of the hair regrowth in the control group was taken as 100.

SD male rats = assay: Maintenance of skin elasticity in rat (UV-B exposed hind limb pads; cutometer and SEM linearity of elastic fibers); format: in vivo; design: Ue value / Uf value: unit not given here; conditions: for Ue value / Uf value: 10 μL on pad after UV-B, three times a week, six weeks, cutometer 500 hPa; for Ue value: solvent only 0.02125, no treatment 0.03294; for Uf value: solvent only 0.03333, no treatment 0.04833; for Linearity: linearity of elastic fibers A/(B×C) from SEM micrographs of rat pad, linear = 1, solvent only 0.5133, no treatment 0.7345
Description: Maintenance of Skin Elasticity in Rat
Three-week-old SD male rats were classified into three groups (five rats per group): a group of rats to which an 80% ethanol solution containing a test compound was applied to pads of hind limbs; a group of rats to which a solvent (80% ethanol) was applied to the pads; and a group of non-treated rats. Each pad was exposed to UV-B rays (less than 1 MED), and then the test compound-containing solution or the solvent was applied to the pad in an amount of 10 μL. The above procedure was carried out three times a week (every other day of the week days) for six weeks.
Skin elasticity was determined using a cutometer (model: SES575, product of Courage Kazaka) as follows. The skin of the pad was subjected to suction at 500 hPa for three seconds, and then released for three seconds. The displacement over six seconds was measured, to thereby obtain Ue and Uf values. The measurement was repeated five times for each pad.
The linearity of elastic fibers was analyzed according to the method of Imokawa et al. (J. Invest. Dermatol., 105, 254–258(1995)) through image analysis of an SEM micrograph. Specifically, samples for scanning electron microscopy (SEM) were prepared by fixing the pad of a rat with Mercox (product of Dainippon Ink and Chemicals, Inc.) under reflux, followed by digestion with formic acid. From SEM micrographs (×1000) of each of the samples, ten typical micrographs were selected and enlarged copies were made. Each of the enlarged micrographs was divided into 16 uniform regions. From each of the regions, any one of the elastic fibers was selected and traced on a transparent film with a line having a fixed width (width: 8 pixels). When the area surrounded by the line tracing the elastic fiber is called A, and the longitudinal length and lateral length of the minimum rectangle surrounding the trace are called B and C, respectively, the linearity of the elastic fiber is represented by A/(B×C). For example, when the trace of the elastic fiber is linear, the linearity becomes 1.

[1] = 0.1% test compound in 80% ethanol
[2] = 1% test compound in 80% ethanol

| Structure (SMILES) | Wrinkle Index (hairless mouse (HR/ICR); [1]) | response vs control in vivo at 0.1 % (C3H mice) [%] | Ue value (SD male rats; 0.1% in 80% ethanol) | Uf value (SD male rats; 0.1% in 80% ethanol) | Linearity (SD male rats; 0.1%) | Wrinkle Index (hairless mouse (HR/ICR); [2]) | Hair-growth suppression ratio (C3H mice) [%] | Ue value (SD male rats; 1% in 80% ethanol) | Uf value (SD male rats; 1% in 80% ethanol) | Linearity (SD male rats; 1%) |
| --- | --- | --- | --- | --- | --- | --- | --- | --- | --- | --- |
| CN(C)[C@@H](Cc1ccccc1)C(=O)NCCC(=O)O [Compound 7] | 2.34 ± 0.10 | 69.6 | 0.02623 ± 0.00874 | 0.0412 ± 0.00258 | 0.6423 ± 0.0433 | – | – | – | – | – |
| CC(C)C[C@H](NC(=O)[C@H](Cc1ccccc1)NCC(=O)O)C(=O)O [Compound 3] | 1.82 ± 0.09 | 72.3 | 0.02985 ± 0.01021 | 0.04323 ± 0.01722 | 0.7013 ± 0.06551 | – | – | – | – | – |
| CC(=O)N[C@@H](Cc1ccccc1)C(=O)NCCC(=O)O [Compound 6] | 2.57 ± 0.20 | 58.3 | 0.02433 ± 0.00921 | 0.03913 ± 0.00924 | 0.6078 ± 0.0195 | – | – | – | – | – |
| O=C(O)CN[C@@H](Cc1ccccc1)C(=O)N[C@@H](CC(=O)O)C(=O)O [Compound 5] | 2.21 ± 0.14 | 71 | 0.02694 ± 0.00157 | 0.04285 ± 0.00271 | 0.6652 ± 0.0239 | – | – | – | – | – |
| O=C(O)CCCNC(=O)[C@H](Cc1ccccc1)NCC(=O)O [Compound 2] | 2.01 ± 0.14 | 73.3 | – | – | – | – | – | – | – | – |
| N[C@@H](Cc1ccccc1)C(=O)NCCC(=O)O [Compound 12, Phe-β-Ala] | – | – | – | – | – | 1.98 ± 0.20 | 90.4 | 0.03326 ± 0.01267 | 0.04572 ± 0.01862 | 0.7197 ± 0.0321 |
| CCCN[C@@H](Cc1ccccc1)C(=O)NCCC(=O)O [Compound 8] | 2.03 ± 0.09 | 77.8 | 0.02708 ± 0.00119 | 0.0427 ± 0.00657 | 0.6976 ± 0.0422 | – | – | – | – | – |
| N[C@@H](Cc1ccccc1)C(=O)NCC(=O)O [Compound 11, Phe-Gly] (H-Phe-Gly-OH) | – | – | – | – | – | 2.82 ± 0.18 | 32.9 | – | – | – |
| N[C@@H](Cc1ccccc1)C(=O)N[C@@H](CC(=O)O)C(=O)O [Compound 16, Phe-Asp] (H-Phe-Asp-OH) | – | – | – | – | – | 2.50 ± 0.15 | 75.2 | – | – | – |
| C[C@H](NC(=O)[C@H](Cc1ccccc1)NCC(=O)O)C(=O)O [Compound 4] | 1.75 ± 0.12 | 80.5 | 0.03009 ± 0.00274 | 0.04533 ± 0.00971 | 0.7153 ± 0.0329 | – | – | – | – | – |
| CC(C)C[C@H](NCC(=O)O)C(=O)NCCC(=O)O [Compound 9] | 2.11 ± 0.11 | 77.1 | 0.02793 ± 0.00697 | 0.04295 ± 0.00836 | 0.6892 ± 0.0157 | – | – | – | – | – |
| CC(C)C[C@H](NC(=O)[C@@H](N)Cc1ccccc1)C(=O)O [Compound 14, Phe-Leu] (H-Phe-Leu-OH) | – | – | – | – | – | 2.82 ± 0.22 | 70.9 | – | – | – |
| N[C@@H](Cc1ccccc1)C(=O)N[C@@H](Cc1ccccc1)C(=O)O [Compound 13, Phe-Phe] (H-Phe-Phe-OH) | – | – | – | – | – | 2.64 ± 0.16 | 78.5 | – | – | – |
| O=C(O)CCNC(=O)[C@H](Cc1ccccc1)NCC(=O)O [Compound 1, N-(carboxymethyl)phenylalanyl-β-alanine] | 1.25 ± 0.11 | 82.4 | 0.03153 ± 0.00523 | 0.04711 ± 0.00213 | 0.7221 ± 0.0299 | – | – | – | – | – |
| NC(Cc1ccccc1)C(=O)NCCS(=O)(=O)O (stereo not drawn) [Compound 17, Phe-Tau] | – | – | – | – | – | 1.99 ± 0.12 | 79.5 | 0.02894 ± 0.0114 | 0.04369 ± 0.00872 | 0.6913 ± 0.0341 |
